{
  "source": "patent US20260102377A1",
  "about": "“COMPOSITIONS AND METHODS FOR TREATING MYASTHENIA GRAVIS” (priority 2022, published 2026)",
  "key": {"[1]": {"test_system": "soleus, EDL and diaphragm muscles from EAMG rats", "assay": "Force measurement in isolated intact nerve-muscle preparations", "design": "species or system rat", "details": "for Relative force area after addition of NMD670 (Initial area = 100): NMD670 between 20 and 40 μM", "text": "To allow for measurements of electrophysiological properties at the cellular level and for measurements of force, it was necessary to isolate nerve-muscle preparations from the rats. To this end, animals were sacrificed, and muscles were dissected out with 1 to 3 cm of intact nerve. The nerve-muscle preparations were then transferred to the organ baths used for the particular experiments (see below) and perfused with Normal Krebs-Ringer (NKR) solution, consisting of (in mM); 122 NaCl, 25 NaHCO3, 2.8 KCl, 1.2 KH2PO4, 1.2 MgSO4 1.27 CaCl2 and 5 D-glucose. This NKR solution was continuously gassed with a mixture of 95% oxygen and 5% CO2, to maintain a pH of approx. 7.4. In some experiments methyl-sulphate was used to replace Cl^− in the solution. All chemicals used were of analytical grade.\nTo determine whether enhanced neuromuscular transmission with CIC-1 inhibition could restore force in whole muscles from EAMG animals, experiments were conducted with soleus, extensor digitorum longus, and diaphragm muscles from EAMG rats. All muscles were mounted on force transducers (FORT 250, WPI instruments DE) in pre-warmed chambers (30° C.) containing 20 mL NKR each. The acquisition program Signal (version 6.4, Cambridge Electronics Design Ltd, Cambridge, UK) was used to control stimulation, delivered by an isolated stimulator (isostim 01D NPI electronics, DE) and for recording data via an analogue-digital converter (Micro 1401 Cambridge Electronics Design Ltd, Cambridge, UK). After equilibration in chambers, muscles were stretched to their optimal length and stimulated at a range of frequencies. For the duration of the experiment muscles were stimulated both directly and via the nerve at 12 V. This was accomplished by changing the stimulation pulse duration between 0.02 ms for nerve stimulation and 0.2 ms for direct stimulation of the muscle fibres. Muscles were stimulated every 10 min at 60 Hz for 1 second, either directly or via the nerve. To test for effect of NMD670 on force generation, different concentrations of NMD670 were added directly to the experimental chamber of the individual muscles."}, "[2]": {"assay": "Phase I clinical trial Part A: pharmacokinetics", "assay_type": "in vivo", "details": "human; for Cmax / half-life / AUC(0-inf): plasma; for AUC(0-inf): read-out: AUC0-infinity (Mean ± SD, h · ng/mL)"}, "[3]": {"test_system": "healthy subjects", "assay": "Phase I clinical trial Part A: tolerability/safety of single doses", "from_the_text": "Part A1 tested single doses of NMD670 in a double-blind, randomised, placebo-controlled, partial crossover and dose-escalating design in healthy male subjects (see the WHO International Clinicals Trials Registry Platform study reference NL8692). A total of nine dose levels were investigated in three cohorts of subjects. Each cohort consisted of nine subjects, each subject had three study sessions. Each subject received escalating doses of NMD670 on two occasions and placebo on one occasion, the order will be randomized in a cross-over fashion. Each dose level was randomized in a 6:3 ratio (active vs. placebo).\nTherefore, for the remaining 2 doses, a full cross-over design investigating one previously tested dose level was used. […] To determine the effect of food on the exposure of single oral doses of NMD670, dose level 5 was administered in both the fasted and fed condition. Subjects who received dose level 5 returned for a fourth visit in which they received dose level 5 (or matching placebo) in the fed condition, in the same randomization as the chosen dose level in the fasted condition.\nPart A2 of the study investigated the safety, tolerability and pharmacokinetics of NMD670 in 8 healthy female subjects of non-childbearing potential, in a randomized, double-blind, placebo-controlled single dose administration of NMD670. Subjects received 800 mg NMD670. Subjects were randomized in a 6:2 ratio (active vs. placebo).\nThe following endpoints were determined at time points indicated in the Schedule of Assessments. • Serious adverse events (SAEs) and adverse events (AEs) were collected throughout the study at every study visit. • Concomitant medication • Clinical laboratory tests • Haematology • Chemistry • Urinalysis • Coagulation • Vital signs • Pulse Rate (bpm) • Systolic blood pressure (mmHg) • Diastolic blood pressure (mmHg) • Respiratory rate • ECG • Heart Rate (HR) (bpm), PR, QRS, QT, QTcF • 24-hour Holter recording • Hand grip dynamometry • Grip release profile; time profile from 100% maximum voluntary contraction (MVC) to 5% of the 100% MVC"}, "[4]": {"details": "male, po, 1600 mg, 1600 mg single oral dose, healthy male subjects, SD not given"}, "[5]": {"details": "of a total of 70 AEs, Part A healthy subjects"}},
  "note": "“Also recorded” adds a separate entry of the source. Like-named read-outs stand apart in the source and are kept apart here.",
  "data": [
    {"smiles": "C[C@H](Oc1ccc(Br)cc1-c1ccon1)C(=O)O", "note": "[NMD670, (2S)-2-[4-bromo-2-(1,2-oxazol-3-yl)phenoxy]propanoic acid]", "values": [
      {"measurement": "Force from isolated soleus muscle", "setting": "[1]; 20 μM NMD670, nerve-stimulated at 60 Hz, EAMG rats", "result": "could be restored"},
      {"measurement": "Relative force area after addition of NMD670 (Initial area = 100)", "setting": "[1]; Diaphragm (12) from EAMG rats", "result": "120.2 ± 5.04"},
      {"measurement": "Relative force area after addition of NMD670 (Initial area = 100)", "setting": "[1]; EDL (14) from EAMG rats", "result": "235.1 ± 25.0"},
      {"measurement": "Force generation in isolated soleus, EDL and diaphragm muscles compared with muscles from healthy animals", "setting": "[1]; NMD670 20 μM or between 20 and 40 μM, EAMG animals", "result": "restored force generation"},
      {"measurement": "Relative force area after addition of NMD670 (Initial area = 100)", "setting": "[1]; Soleus (14) from EAMG rats", "result": "199 ± 17.1"},
      {"measurement": "Cmax", "setting": "[2]; female, po, 800 mg, 800 mg (female), single oral dose, read-out: Cmax (Mean ± SD, ng/mL)", "result": "44400 ± 7480", "unit": "ng/mL"},
      {"measurement": "Accumulation between single and multiple dosing", "setting": "[2]; phase 1 FIH study", "result": "no meaningful accumulation"},
      {"measurement": "half-life", "setting": "[2]; oral, mostly eliminated in 24 hours, read-out: Half-life (converted)", "result": "~5", "unit": "h"},
      {"measurement": "Cmax", "setting": "[2]; male, po, 50 mg, 50 mg single oral dose, healthy male subjects, read-out: Cmax (Mean ± SD, ng/mL)", "result": "1900 ± 580", "unit": "ng/mL"},
      {"measurement": "AUC(0-inf)", "setting": "[2]; male, po, 100 mg, 100 mg single oral dose, healthy male subjects", "result": "18.5 ± 1.77", "unit": "µg·h/mL"},
      {"measurement": "Cmax", "setting": "[2]; male, po, 100 mg, 100 mg single oral dose, healthy male subjects, read-out: Cmax (Mean ± SD, ng/mL)", "result": "3980 ± 1190", "unit": "ng/mL"},
      {"measurement": "half-life", "setting": "[2]; male, po, 100 mg, 100 mg single oral dose, healthy male subjects, read-out: T1/2 (mean ± SD, hr) (converted)", "result": "5.07 ± 0.63", "unit": "h"},
      {"measurement": "AUC(0-inf)", "setting": "[2]; male, po, 200 mg, 200 mg single oral dose, healthy male subjects", "result": "36.1 ± 5.03", "unit": "µg·h/mL"},
      {"measurement": "Cmax", "setting": "[2]; male, po, 200 mg, 200 mg single oral dose, healthy male subjects, read-out: Cmax (Mean ± SD, ng/mL)", "result": "7780 ± 1130", "unit": "ng/mL"},
      {"measurement": "half-life", "setting": "[2]; male, po, 200 mg, 200 mg single oral dose, healthy male subjects, read-out: T1/2 (mean ± SD, hr) (converted)", "result": "4.6 ± 0.67", "unit": "h"},
      {"measurement": "AUC(0-inf)", "setting": "[2]; male, po, 400 mg, 400 mg single oral dose, healthy male subjects", "result": "87.7 ± 21.4", "unit": "µg·h/mL"},
      {"measurement": "Cmax", "setting": "[2]; male, po, 400 mg, 400 mg single oral dose, healthy male subjects, read-out: Cmax (Mean ± SD, ng/mL)", "result": "20100 ± 7340", "unit": "ng/mL"},
      {"measurement": "half-life", "setting": "[2]; male, po, 400 mg, 400 mg single oral dose, healthy male subjects, read-out: T1/2 (mean ± SD, hr) (converted)", "result": "4.68 ± 0.49", "unit": "h"},
      {"measurement": "AUC(0-inf)", "setting": "[2]; male, po, 800 mg, 800 mg fasted (male), single oral dose", "result": "191 ± 31.5", "unit": "µg·h/mL"},
      {"measurement": "Cmax", "setting": "[2]; male, po, 800 mg, 800 mg fasted (male), single oral dose, read-out: Cmax (Mean ± SD, ng/mL)", "result": "36700 ± 15400", "unit": "ng/mL"},
      {"measurement": "AUC(0-inf)", "setting": "[2]; male, po, 800 mg, 800 mg fed (male), single oral dose", "result": "180 ± 27.9", "unit": "µg·h/mL"},
      {"measurement": "Cmax", "setting": "[2]; male, po, 800 mg, 800 mg fed (male), single oral dose, read-out: Cmax (Mean ± SD, ng/mL)", "result": "37300 ± 7420", "unit": "ng/mL"},
      {"measurement": "AUC(0-inf)", "setting": "[2]; male, po, 1200 mg, 1200 mg single oral dose, healthy male subjects", "result": "358 ± 176", "unit": "µg·h/mL"},
      {"measurement": "Cmax", "setting": "[2]; male, po, 1200 mg, 1200 mg single oral dose, healthy male subjects, read-out: Cmax (Mean ± SD, ng/mL)", "result": "55000 ± 21700", "unit": "ng/mL"},
      {"measurement": "half-life", "setting": "[2]; male, po, 1200 mg, 1200 mg single oral dose, healthy male subjects, read-out: T1/2 (mean ± SD, hr) (converted)", "result": "6.11 ± 1.28", "unit": "h"},
      {"measurement": "Cmax", "setting": "[2]; [4]", "result": 123000, "unit": "ng/mL"},
      {"measurement": "AUC(0-inf)", "setting": "[2]; [4]", "result": 826, "unit": "µg·h/mL"},
      {"measurement": "half-life", "setting": "[2]; male, po, 1600 mg, 1600 mg single oral dose, healthy male subjects, SD not given, read-out: T1/2 (mean ± SD, hr) (converted)", "result": 4.48, "unit": "h"},
      {"measurement": "Healthy subjects with myotonic symptoms", "setting": "[3]; 1200 mg QD, mild in intensity, resolved spontaneously within a few hours", "result": 2, "unit": "healthy subjects"},
      {"measurement": "AE with dose relationship, reported at the highest dose levels tested", "setting": "[3]; 1200 mg and 1600 mg single dose, healthy subjects", "result": "transient myotonia"},
      {"measurement": "Subject discontinuations", "setting": "[3]; Part A healthy subjects", "result": "no subject discontinuations"},
      {"measurement": "Total number of AEs reported", "setting": "[3]; Part A, 35 healthy subjects, single-ascending dose study", "result": 70, "unit": "AEs"},
      {"measurement": "Serum uric acid", "setting": "[3]; Phase 1 clinical study, considered non-clinically significant", "result": "dose-dependent decrease in serum uric acid"},
      {"measurement": "Intensity of most AEs", "setting": "[3]; Phase 1 healthy subjects", "result": "mild and mild in intensity"},
      {"measurement": "Maximum tolerated dose", "setting": "[3]; healthy subjects, based on myotonia", "result": 1200, "unit": "mg QD"},
      {"measurement": "AEs at least possibly drug-related (number)", "setting": "[3]; [5]", "result": 47, "unit": "AEs"},
      {"measurement": "AEs at least possibly drug-related (proportion)", "setting": "[3]; [5]", "result": 67, "unit": "%"},
      {"measurement": "Myotonia at 1600 mg (intensity)", "setting": "[3]; one healthy subject, single dose 1600 mg, spontaneously and fully resolved within hours, dose escalation stopped", "result": "myotonia of moderate intensity; also recorded: moderate in intensity; also recorded: Myotonia of moderate severity"},
      {"measurement": "Serious or severe adverse effects", "setting": "[3]; single doses 50-1600 mg, healthy subjects", "result": "No serious or severe adverse effects; also recorded: No serious adverse reactions were reported"},
      {"measurement": "Relationship between increases in NMD670 dose and incidence of participants with AEs", "setting": "[3]; single doses, healthy subjects", "result": "no meaningful relationships"}
    ]}
  ]
}
